Assays:
Ah receptor (AhR) [1] = target: T1, Ah receptor (AhR) (Mus musculus, UniProt P30561); assay: yAhR nuclear translocation in yAHAYc6 cells, fluorescence microscopy; assay type: cell-based
T1 sequence (P30561 10-848): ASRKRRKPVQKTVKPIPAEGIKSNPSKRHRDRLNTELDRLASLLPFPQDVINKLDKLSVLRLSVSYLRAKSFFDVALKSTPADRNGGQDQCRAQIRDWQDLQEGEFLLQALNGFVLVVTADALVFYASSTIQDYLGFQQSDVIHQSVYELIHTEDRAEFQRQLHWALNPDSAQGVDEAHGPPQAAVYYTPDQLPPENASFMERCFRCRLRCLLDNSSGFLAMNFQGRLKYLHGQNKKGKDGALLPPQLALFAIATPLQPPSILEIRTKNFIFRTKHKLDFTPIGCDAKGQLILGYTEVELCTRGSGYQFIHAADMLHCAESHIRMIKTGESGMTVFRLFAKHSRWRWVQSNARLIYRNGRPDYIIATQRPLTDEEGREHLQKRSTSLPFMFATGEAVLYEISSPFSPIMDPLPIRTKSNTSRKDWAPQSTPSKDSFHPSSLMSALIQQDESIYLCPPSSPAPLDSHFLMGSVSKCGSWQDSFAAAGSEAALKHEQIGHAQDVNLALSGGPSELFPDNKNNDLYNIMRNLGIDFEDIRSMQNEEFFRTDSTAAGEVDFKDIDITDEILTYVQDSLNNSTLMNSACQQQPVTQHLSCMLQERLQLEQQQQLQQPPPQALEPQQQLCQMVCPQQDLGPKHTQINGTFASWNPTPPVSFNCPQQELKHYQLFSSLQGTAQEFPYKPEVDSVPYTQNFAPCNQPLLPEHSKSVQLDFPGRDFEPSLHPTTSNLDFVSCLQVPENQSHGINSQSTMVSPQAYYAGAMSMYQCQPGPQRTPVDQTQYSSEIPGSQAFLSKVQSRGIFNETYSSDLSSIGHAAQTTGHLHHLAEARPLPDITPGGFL

Ah receptor (AhR) [2] = target: T1, Ah receptor (AhR); assay: yAhR nuclear translocation in yAHAYc6 cells; assay type: cell-based

| Compound | yAhR nuclear translocation in yAHAYc6 cells, fluorescence microscopy (Ah receptor (AhR) [1]) | EC50 (Ah receptor (AhR) [2]) |
| --- | --- | --- |
| Cc1ccc2cc3c(ccc4ccccc43)c3c2c1CC3 [3-methylcholanthrene] | known AhR agonists (TCDD, DBA, PCB77, indirubin, 3MC and BNF |  |
| Clc1ccc(-c2ccc(Cl)c(Cl)c2)cc1Cl [PCB77, 3,3’,4,4’-Tetrachlorobiphenyl] | known AhR agonists (TCDD, DBA, PCB77, indirubin, 3MC and BNF |  |
| Clc1cc2c(cc1Cl)Oc1cc(Cl)c(Cl)cc1O2 [TCDD, 2,3,7,8-tetrachlorodibenzo-p-dioxin] |  | 0.2 nM |
| c1ccc2c(c1)ccc1cc3c(ccc4ccccc43)cc12 [dibenz(a,h)anthracene] | known AhR agonists (TCDD, DBA, PCB77, indirubin, 3MC and BNF |  |
| O=C1Nc2ccccc2/C1=C1/Nc2ccccc2C1=O [indirubin] | known AhR agonists (TCDD, DBA, PCB77, indirubin, 3MC and BNF |  |

From article PMC7260106 (Toxicology in vitro : an international journal published in …, 2020)
